Experimental data reported in patent US20240270762A1, “PENICILLIN-BINDING PROTEIN INHIBITORS” (priority 2021, published 2024).
Values after ≈ are worked out from the molar mass of the structure shown.

How the values were obtained:
[1] = target: T1, PBP3 from Pseudomonas aeruginosa (PAO1) (Pseudomonas aeruginosa, UniProt G3XD46); assay: Bocillin-FL fluorescence polarization competition binding, P. aeruginosa PBP3; conditions: Binding affinity to P. aeruginosa PBP3; fluorescence polarization competition binding assay using Bocillin-FL; read-out: P. aeruginosa PBP3 Potency
T1 construct: made in house
T1 sequence (G3XD46 whole entry): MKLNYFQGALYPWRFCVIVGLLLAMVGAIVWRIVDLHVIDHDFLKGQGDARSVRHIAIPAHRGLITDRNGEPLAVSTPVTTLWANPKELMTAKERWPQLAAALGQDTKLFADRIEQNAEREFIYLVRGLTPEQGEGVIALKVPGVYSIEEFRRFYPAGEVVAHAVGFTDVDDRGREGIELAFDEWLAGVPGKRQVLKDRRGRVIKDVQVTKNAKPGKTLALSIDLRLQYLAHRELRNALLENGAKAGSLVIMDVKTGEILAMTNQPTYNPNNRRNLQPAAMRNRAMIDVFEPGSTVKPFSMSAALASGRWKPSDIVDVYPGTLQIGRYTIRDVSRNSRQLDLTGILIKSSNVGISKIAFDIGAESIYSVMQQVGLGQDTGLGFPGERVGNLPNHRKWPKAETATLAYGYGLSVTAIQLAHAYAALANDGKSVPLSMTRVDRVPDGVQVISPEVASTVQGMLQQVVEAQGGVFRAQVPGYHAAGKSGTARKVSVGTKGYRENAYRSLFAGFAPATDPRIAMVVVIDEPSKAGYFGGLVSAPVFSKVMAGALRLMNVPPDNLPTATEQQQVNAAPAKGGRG
Outline: (§1)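 Purified PBP was preincubated with inhibitor (E. coli PBP3 1.5 μM, 30 min; P. aeruginosa PBP3 0.75 μM, A. baumannii PBP3 0.2 μM and PBP1a 1 μM, 15 min), then Bocillin-FL (0.1 μM; 0.05 μM for PBP1a) added and FP read up to 60 min. EC50 = 50% loss of bound probe.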

A. baumannii CDC-0036 = assay: microbe, parasite or virus in culture; format: cell-based; conditions: Acinetobacter baumannii, CDC0036, read-out: MIC, A. baumannii CDC-0036
A. baumannii ATCC 17978 = assay: microbe, parasite or virus in culture; format: cell-based; conditions: Acinetobacter baumannii, ATCC17978, read-out: MIC, A. baumannii ATCC 17978
A. baumannii 1258916 = assay: microbe, parasite or virus in culture; format: cell-based, Acinetobacter baumannii; conditions: Acinetobacter baumannii, 1258916, read-out: MIC, A. baumannii 1258916
A. baumannii PBP2 = A. baumannii PBP2 (Acinetobacter baumannii, UniProt D0C8Z9); assay: Bocillin-FL competition binding via gel filtration, A. baumannii PBP2
Sequence of A. baumannii PBP2 (D0C8Z9 whole entry): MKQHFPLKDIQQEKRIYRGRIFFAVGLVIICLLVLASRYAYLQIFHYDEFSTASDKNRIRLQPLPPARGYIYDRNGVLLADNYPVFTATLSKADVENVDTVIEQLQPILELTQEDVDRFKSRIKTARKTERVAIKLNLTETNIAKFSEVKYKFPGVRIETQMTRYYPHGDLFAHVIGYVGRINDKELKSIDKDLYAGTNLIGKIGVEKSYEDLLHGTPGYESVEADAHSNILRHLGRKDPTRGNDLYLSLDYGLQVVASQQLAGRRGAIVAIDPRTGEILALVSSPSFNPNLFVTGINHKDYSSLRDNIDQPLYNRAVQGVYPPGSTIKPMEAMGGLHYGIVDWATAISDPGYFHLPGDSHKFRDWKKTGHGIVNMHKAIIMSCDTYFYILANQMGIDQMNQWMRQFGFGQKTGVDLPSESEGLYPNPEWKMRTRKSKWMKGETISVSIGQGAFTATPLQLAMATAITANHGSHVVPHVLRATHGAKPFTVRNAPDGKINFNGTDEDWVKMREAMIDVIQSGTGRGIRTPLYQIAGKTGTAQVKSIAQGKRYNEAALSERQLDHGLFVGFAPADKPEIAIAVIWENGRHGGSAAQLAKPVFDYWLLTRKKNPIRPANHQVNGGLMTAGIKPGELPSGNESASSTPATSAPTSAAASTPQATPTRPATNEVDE
Outline: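 Competitive equilibrium binding; reporter Bocillin-FL. PBP + inhibitor (titration) pre-incubated → Bocillin-FL, 15 min → gel filtration → fluorescence. EC50 from Hill fit of fraction bound vs [inhibitor].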

[2] = test system: P. aeruginosa (ΔmexAB-oprM); assay: Broth microdilution MIC in iron-depleted CAMHB (IDM); format: cell-based; conditions: Pseudomonas aeruginosa; iron-depleted CAMHB (IDM); […]; read-out: Minimum inhibitory concentration, P. aeruginosa ΔmexAB-oprM
P. aeruginosa CDC-0110 = assay: microbe, parasite or virus in culture; format: cell-based; conditions: Pseudomonas aeruginosa, CDC0110, read-out: Minimum inhibitory concentration, P. aeruginosa CDC-0110
[3] = target: T2, PBP3 from Acinetobacter baumannii (ATCC 19606) (Acinetobacter baumannii, UniProt A0ABX6CK25); assay: Bocillin-FL fluorescence polarization competition binding, A. baumannii PBP3; conditions: fluorescence polarization competition binding assay using Bocillin-FL; read-out: A. baumannii PBP3 Potency
T2 sequence (A0ABX6CK25 64-610): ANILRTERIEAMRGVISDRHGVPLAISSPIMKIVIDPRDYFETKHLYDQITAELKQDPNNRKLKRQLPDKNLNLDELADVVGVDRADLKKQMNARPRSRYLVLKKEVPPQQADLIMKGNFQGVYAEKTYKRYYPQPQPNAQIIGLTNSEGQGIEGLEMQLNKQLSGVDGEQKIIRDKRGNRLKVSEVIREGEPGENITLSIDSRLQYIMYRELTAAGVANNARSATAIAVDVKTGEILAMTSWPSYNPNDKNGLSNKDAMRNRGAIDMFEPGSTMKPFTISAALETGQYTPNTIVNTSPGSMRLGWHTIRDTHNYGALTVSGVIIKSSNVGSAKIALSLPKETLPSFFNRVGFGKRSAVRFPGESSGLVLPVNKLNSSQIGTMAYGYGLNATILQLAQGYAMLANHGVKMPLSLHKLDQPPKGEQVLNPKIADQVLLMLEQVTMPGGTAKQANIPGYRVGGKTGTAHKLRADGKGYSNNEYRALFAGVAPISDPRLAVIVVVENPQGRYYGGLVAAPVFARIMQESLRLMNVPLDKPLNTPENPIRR
Outline: as §1

Row | SMILES | IC50 [1] | MIC (A. baumannii CDC-0036) | MIC (A. baumannii ATCC 17978) | MIC (A. baumannii 1258916) | EC50 (A. baumannii PBP2) | MIC [2] | MIC (P. aeruginosa CDC-0110) | IC50 [3]
1 | O=C(NCCCN1CCN(C(=O)NC(C(=O)N[C@H]2Cc3ccc(F)c(C(=O)O)c3OB2O)c2cc(F)c(O)c(O)c2Cl)C(=O)C1=O)c1cc(F)ncc1F (mixture of isomers) [Example 405] | < 10 µM | 2 to 4 µg/mL | < 1 µg/mL | 2 to 4 µg/mL | 10 to 50 µM | < 1 µg/mL | 2 to 4 µg/mL | < 10 µM
2 | O=C(NCCCN1CCN(C(=O)N[C@@H](C(=O)N[C@H]2Cc3ccc(F)c(C(=O)O)c3OB2O)c2cc(F)c(O)c(O)c2Cl)C(=O)C1=O)c1cc(F)nc(F)c1 (racemic) [Example 401] | < 10 µM | 2 to 4 µg/mL (≈ 2.56 to 5.12 µM) | < 1 µg/mL | < 1 µg/mL | 10 to 50 µM | < 1 µg/mL | < 1 µg/mL | < 10 µM
3 | O=C(NCCCN1CCN(C(=O)N[C@@H](C(=O)N[C@H]2Cc3ccc(F)c(C(=O)O)c3OB2O)c2cc(F)c(O)c(O)c2Cl)C(=O)C1=O)c1ccc(O)cc1F (racemic) [Example 417] | < 10 µM | 2 to 4 µg/mL (≈ 2.57 to 5.14 µM) | < 1 µg/mL | < 1 µg/mL | < 10 µM | < 1 µg/mL | 32 to 64 µg/mL (≈ 41.1 to 82.3 µM) | 10 to 50 µM
4 | O=C(NCCCN1CCN(C(=O)N[C@@H](C(=O)N[C@H]2Cc3ccc(F)c(C(=O)O)c3OB2O)c2cc(F)c(O)c(O)c2Cl)C(=O)C1=O)c1c(F)cc(O)cc1F (racemic) [Example 420] | < 10 µM | 2 to 4 µg/mL (≈ 2.51 to 5.03 µM) | < 1 µg/mL | 2 to 4 µg/mL (≈ 2.51 to 5.03 µM) | 10 to 50 µM | < 1 µg/mL | < 1 µg/mL | < 10 µM
5 | O=C(NCCCN1CCN(C(=O)N[C@@H](C(=O)N[C@H]2Cc3ccc(F)c(C(=O)O)c3OB2O)c2cc(F)c(O)c(O)c2Cl)C(=O)C1=O)c1ccncc1 [Example 294, (R)-3-((R)-2-(2-chloro-5-fluoro-3,4-dihydroxyphenyl)-2-(4-(3-(isonicotinamido)propyl)-2,3-dioxopiperazine-1-carboxamido)acetamido)-7-fluoro-2-hydroxy-3,4-dihydro-2H-benzo[e][1,2]oxaborinine-8-carboxylic acid] | < 10 µM | < 1 µg/mL | < 1 µg/mL | < 1 µg/mL | – | < 1 µg/mL | < 1 µg/mL | < 10 µM
6 | O=C(NCCCN1CCN(C(=O)N[C@H](C(=O)N[C@H]2Cc3ccc(F)c(C(=O)O)c3OB2O)c2cc(F)c(O)c(O)c2Cl)C(=O)C1=O)c1ccnc(F)c1F [Example 299, (R)-3-((S)-2-(2-chloro-5-fluoro-3,4-dihydroxyphenyl)-2-(4-(3-(2,3-difluoroisonicotinamido)propyl)-2,3-dioxopiperazine-1-carboxamido)acetamido)-7-fluoro-2-hydroxy-3,4-dihydro-2H-benzo[e][1,2]oxaborinine-8-carboxylic acid] | 10 to 50 µM | 32 to 64 µg/mL (≈ 41 to 82 µM) | < 1 µg/mL | 8 to 16 µg/mL (≈ 10.2 to 20.5 µM) | – | 2 to 4 µg/mL (≈ 2.56 to 5.12 µM) | 8 to 16 µg/mL (≈ 10.2 to 20.5 µM) | 10 to 50 µM
7 | O=C(NCCCN1CCN(C(=O)N[C@@H](C(=O)N[C@H]2Cc3ccc(F)c(C(=O)O)c3OB2O)c2cc(F)c(O)c(O)c2Cl)C(=O)C1=O)c1ccnc(F)c1F [Example 300, (R)-3-((R)-2-(2-chloro-5-fluoro-3,4-dihydroxyphenyl)-2-(4-(3-(2,3-difluoroisonicotinamido)propyl)-2,3-dioxopiperazine-1-carboxamido)acetamido)-7-fluoro-2-hydroxy-3,4-dihydro-2H-benzo[e][1,2]oxaborinine-8-carboxylic acid] | < 10 µM | 2 to 4 µg/mL (≈ 2.56 to 5.12 µM) | < 1 µg/mL | < 1 µg/mL | – | < 1 µg/mL | < 1 µg/mL | < 10 µM
8 | Cc1cc(C(=O)NCCCN2CCN(C(=O)NC(C(=O)N[C@H]3Cc4ccc(F)c(C(=O)O)c4OB3O)c3cc(F)c(O)c(O)c3Cl)C(=O)C2=O)c(F)cn1 (stereo partly drawn) [Example 301, (3R)-3-(2-(2-chloro-5-fluoro-3,4-dihydroxyphenyl)-2-(4-(3-(5-fluoro-2-methylisonicotinamido)propyl)-2,3-dioxopiperazine-1-carboxamido)acetamido)-7-fluoro-2-hydroxy-3,4-dihydro-2H-benzo[e][1,2]oxaborinine-8-carboxylic acid] | < 10 µM | 2 to 4 µg/mL (≈ 2.57 to 5.15 µM) | < 1 µg/mL | < 1 µg/mL | – | < 1 µg/mL | < 1 µg/mL | < 10 µM
9 | O=C(NCCCN1CCN(C(=O)N[C@H](C(=O)N[C@H]2Cc3ccc(F)c(C(=O)O)c3OB2O)c2cc(F)c(O)c(O)c2Cl)C(=O)C1=O)c1cccc(O)c1Cl [Example 302, (R)-3-((S)-2-(4-(3-(2-chloro-3-hydroxybenzamido)propyl)-2,3-dioxopiperazine-1-carboxamido)-2-(2-chloro-5-fluoro-3,4-dihydroxyphenyl)acetamido)-7-fluoro-2-hydroxy-3,4-dihydro-2H-benzo[e][1,2]oxaborinine-8-carboxylic acid] | 50 to 250 µM | > 128 µg/mL | 2 to 4 µg/mL (≈ 2.52 to 5.04 µM) | > 128 µg/mL | – | 2 to 4 µg/mL (≈ 2.52 to 5.04 µM) | > 128 µg/mL | 50 to 250 µM
10 | O=C(NCCCN1CCN(C(=O)N[C@@H](C(=O)N[C@H]2Cc3ccc(F)c(C(=O)O)c3OB2O)c2cc(F)c(O)c(O)c2Cl)C(=O)C1=O)c1cccc(O)c1Cl [Example 303, (R)-3-((R)-2-(4-(3-(2-chloro-3-hydroxybenzamido)propyl)-2,3-dioxopiperazine-1-carboxamido)-2-(2-chloro-5-fluoro-3,4-dihydroxyphenyl)acetamido)-7-fluoro-2-hydroxy-3,4-dihydro-2H-benzo[e][1,2]oxaborinine-8-carboxylic acid] | < 10 µM | < 1 µg/mL | < 1 µg/mL | < 1 µg/mL | – | < 1 µg/mL | < 1 µg/mL | < 10 µM
11 | O=C(NCCCN1CCN(C(=O)NC(C(=O)N[C@H]2Cc3ccc(F)c(C(=O)O)c3OB2O)c2cc(F)c(O)c(O)c2Cl)C(=O)C1=O)c1ccc(O)c(F)c1 (stereo partly drawn) [Example 304, (3R)-3-(2-(2-chloro-5-fluoro-3,4-dihydroxyphenyl)-2-(4-(3-(3-fluoro-4-hydroxybenzamido)propyl)-2,3-dioxopiperazine-1-carboxamido)acetamido)-7-fluoro-2-hydroxy-3,4-dihydro-2H-benzo[e][1,2]oxaborinine-8-carboxylic acid] | < 10 µM | 2 to 4 µg/mL (≈ 2.57 to 5.14 µM) | < 1 µg/mL | < 1 µg/mL | – | < 1 µg/mL | < 1 µg/mL | < 10 µM
12 | O=C(NCCCN1CCN(C(=O)NC(C(=O)N[C@H]2Cc3ccc(F)c(C(=O)O)c3OB2O)c2cc(F)c(O)c(O)c2Cl)C(=O)C1=O)c1ccc(F)c(O)c1Cl (stereo partly drawn) [Example 412, (3R)-3-(2-(4-(3-(2-chloro-4-fluoro-3-hydroxybenzamido)propyl)-2,3-dioxopiperazine-1-carboxamido)-2-(2-chloro-5-fluoro-3,4-dihydroxyphenyl)acetamido)-7-fluoro-2-hydroxy-3,4-dihydro-2H-benzo[e][1,2]oxaborinine-8-carboxylic acid] | < 10 µM | 8 to 16 µg/mL (≈ 9.85 to 19.7 µM) | < 1 µg/mL | 2 to 4 µg/mL (≈ 2.46 to 4.92 µM) | < 10 µM | – | < 1 µg/mL | < 10 µM
